Laboratory results reported in US20250129095A1, “ANNULATED 2-AMINO-3-CYANO THIOPHENES AND DERIVATIVES FOR THE TREATMENT OF CANCER” (Boehringer Ingelheim Int'l GmbH Corp., priority 2021, published 2025).
pIC50: −log10 of the molar value. Values after ≈ are worked out from the molar mass of the structure shown. Like-named read-outs stand apart in the source and are kept apart here.

Assays:
AsPC-1 cells = assay: AsPC-1 CTG proliferation assay (120 h) (pancreatic cancer, G12D); type: cell-based; settings: Homo sapiens, ASPC1
Method: The CTG assay is designed to measure quantitatively the proliferation of AsPC-1 cells (ATCC CRL-5985), using the CellTiter Glow Assay Kit (Promega G7571). Cells are grown in RPMI medium (ATCC) supplemented with Fetal Calf Serum (Life Technologies, Gibco BRL, Cat. No. 10270-106). On “day 0” 2000 AsPC-1 cells are seeded in 60 μL RPMI ATCC+10% FCS+ Penstrep in a 384-well plate, flat and clear bottom (Greiner, PNr. 781091). Cells are then incubated in the plates at 37° C. in a CO2 incubator overnight. On day 1, compounds (10 mM stock in DMSO) are added with the ECHO acoustic liquid handler system (Beckman Coulter), including DMSO controls. Plates are incubated for 120 h, and cell viability is measured using CellTiter-Glo luminescent cell viability reagent (Promega product code G7570). Viability (stated as percent of control) is defined as relative luminescence units RLU of each well divided by the RLU of cells in DMSO controls.

[1] = Plasma protein binding assay (PPB), equilibrium dialysis; type: in vitro ADME; settings: bovine, 10% FCS in PBS, read-out: PPB 10% FCS (% fu)
Method: Binding of test compounds to plasma was determined using equilibrium dialysis (ED) and quantitative mass spectrometry interfaced with liquid chromatography (LC-MS). In brief, ED was performed with dialysis devices consisting of two chambers separated by a semipermeable membrane with a molecular weight cut-off of 5-10 kg/mol. One chamber was filled with 10% FCS in PBS containing 1-10 μmol/L test compound and the other chamber was filled with phosphate-buffer saline (PBS) with or without dextran. The dialysis chamber was incubated for 3-5 hours at 37° C. After incubation, protein was precipitated from aliquots of each chamber and the concentration of test compound in the supernatant of the plasma-containing compartment (cserum) and of the buffer-containing compartment (cbuffer) was determined by LC-MS. The fraction of unbound test compound (not bound to plasma) (fu) was calculated according to the following equation: […]

KRAS G12D Ba/F3 = KRAS G12D Ba/F3 (Homo sapiens, UniProt P01116, G12D, cells depend on it); assay: Ba/F3 proliferation assay, KRAS G12D; type: cell-based; settings: 72 h, AlamarBlue, read-out: KRAS G12D Ba/F3 IC50
Method: (§1) Plasmids containing KRASG12 mutants(i.e. G12D, G12C, G12V) are obtained from GeneScript. To generate KRASG12-dependent Ba/F3 models, Ba/F3 cells are transduced with retroviruses containing vectors that harbor KRASG12 isoforms. Platinum-E cells (Cell Biolabs) are used for retrovirus packaging. Retrovirus is added to Ba/F3 cells. To ensure infection, 4 μg/mL polybrene is added and cells are spinfected. […] Cells with an infection efficiency of 10% to 20% are further cultivated and puromycin selection with 1 μg/mL is initiated. As a control, parental Ba/F3 cells are used to show selection status. Selection is considered successful when parental Ba/F3 cells cultures died. To evaluate the transforming potential of KRASG12 mutations, the growth medium is no longer supplemented with IL-3. Ba/F3 cells harboring the empty vector are used as a control. Approximately ten days before conducting the experiments, puromycin is left out.
(§2) Compounds are added using an Access Labcyte Workstation with a Labcyte Echo 550 or 555 accoustic dispenser. All treatments are performed in technical duplicates. […] AlamarBlue™ (ThermoFisher), a viability stain, is added and fluorescence measured in the PerkinElmer Envision HTS Multilabel Reader. The raw data are imported into and analyzed with the Boehringer Ingelheim proprietary software MegaLab (curve fitting based on the program PRISM, GraphPad Inc.).

NCI-H2122 cells = assay: NCI-H2122 CTG proliferation assay (120 h) (NSCLC, G12C); type: cell-based; settings: Homo sapiens
Method: The CTG assay is designed to measure quantitatively the proliferation of NCI-H2122 cells (ATCC CRL-5985), using the CellTiter Glow Assay Kit (Promega G7571). Cells are grown in RPMI medium (ATCC) supplemented with Fetal Calf Serum (Life Technologies, Gibco BRL, Cat. No. 10270-106). On “day 0” 200 NCI-H2122 cells are seeded in 60 μL RPMI ATCC+10% FCS+Penstrep in a black 384-well plate, flat and clear bottom (Greiner, PNr. 781091). Cells are then incubated in the plates at 37° C. in a CO2 incubator overnight. On day 1, compounds (10 mM stock in DMSO) are added with the ECHO acoustic liquid handler system (Beckman Coulter), including DMSO controls. Plates are incubated for 120 h, and cell viability is measured using CellTiter-Glo luminescent cell viability reagent (Promega product code G7570). Viability (stated as percent of control) is defined as relative luminescence units RLU of each well divided by the RLU of cells in DMSO controls. […] values are determined from viability measurements by non-linear regression using a four parameter model. • AsPC-1 CTG proliieradon assay (120 h) (pancreatic cancer, G12D)

SK-CO-1 cells = assay: SK-CO-1 CTG proliferation assay (120 h) (CRC, G12V); type: cell-based; settings: Homo sapiens
Method: SK-CO-1 cells (ATCC HTB-39) are dispensed into 384-well plates, flat and clear bottom (Greiner, PNr. 781091) at a density of 500 cells per well in 60 μL EMEM (Sigma M5650)+10% Fetal Calf Serum (HyClone, PNr.: SH30084.03) and incubated at 37° C. in a CO2 incubator overnight. The next day, compounds (10 mM stock in DMSO) are added with the ECHO acoustic liquid handler system (Beckman Coulter), including DMSO controls. Plates are incubated for 120 h, and cell viability is measured using CellTiter-Glo luminescent cell viability reagent (Promega product code G7570). Viability (stated as percent of control) is defined as relative luminescence units RLU of each well divided by the RLU of cells in DMSO controls.

[2] = Solubility measurement (DMSO solution precipitation method); type: physicochemical; settings: aqueous buffer, kinetic from dmso stock
Method: The DMSO solution is diluted with an aqueous medium (McIlvaine buffer with pH=4.5 or 6.8) to a final concentration of 250 μM. After 24 h of shaking at ambient temperature a potentially formed precipitate is removed by filtration. The concentration of the test compound in the filtrate is determined by LC-UV methods by calibrating the signal to the signal of a reference solution with complete dissolution of the test compound in acetonitrile/water (1:1) with known concentration.

KRAS G12C Ba/F3 = KRAS G12C Ba/F3 (Homo sapiens, UniProt P01116, G12C, cells depend on it); assay: Ba/F3 proliferation assay, KRAS G12C; type: cell-based; settings: 72 h, AlamarBlue, read-out: KRAS G12C Ba/F3 IC50
Method: as §1, §2

[3] = McIlvaine buffer pH 4.5, 24 h, read-out: Solubility [μg/ml] pH 4.5
[4] = McIlvaine buffer pH 6.8, 24 h, read-out: Solubility [μg/ml] pH 6.8

Sequence of KRAS G12D Ba/F3 (P01116 whole entry G12D, canonical isoform): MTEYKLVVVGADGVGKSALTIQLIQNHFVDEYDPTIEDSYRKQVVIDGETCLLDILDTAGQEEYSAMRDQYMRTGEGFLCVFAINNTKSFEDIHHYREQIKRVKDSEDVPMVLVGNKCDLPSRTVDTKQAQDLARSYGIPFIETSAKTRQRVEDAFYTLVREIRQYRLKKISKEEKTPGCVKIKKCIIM
Sequence of KRAS G12C Ba/F3 (P01116 whole entry G12C): as the sequence (P01116 whole entry G12D, canonical isoform) above, with D12C counted along it

SMILES | pIC50 (AsPC-1 cells) | fraction unbound [1] | GI50 (KRAS G12D Ba/F3) [nM] | pIC50 (NCI-H2122 cells) | pIC50 (SK-CO-1 cells) | solubility at 24 h [2, 3] [µg/mL] | solubility at 24 h [2, 4] [µg/mL] | GI50 (KRAS G12C Ba/F3) [nM]
C[C@H](Oc1cc(Oc2ccon2)nc(-c2noc3c2CCC[C@@]32CCCc3sc(N)c(C#N)c32)n1)[C@@H]1CCCN1C [II-3] | 5.70 | 0.12 | 27 | 6.56 | 7.08 | > 138 | 42 (≈ 73.2 µM) | 17
C[C@H](Oc1cc(O[C@H]2CCOC2)nc(-c2noc3c2CCC[C@@]32CCCc3sc(N)c(C#N)c32)n1)[C@@H]1CCCN1C [II-4] | 5.56 | 0.54 | 31 | 6.09 | 7.55 | 80 (≈ 139 µM) | < 1 | 12
COCCOc1cc(O[C@@H](C)[C@@H]2CCCN2C)nc(-c2noc3c2CCC[C@@]32CCCc3sc(N)c(C#N)c32)n1 [II-5] | 5.59 | 0.5 | 38 | 6.06 | 7.64 | > 140 | 108 (≈ 191 µM) | 17
C[C@H](Oc1cc(OCCO)nc(-c2noc3c2CCC[C@@]32CCCc3sc(N)c(C#N)c32)n1)[C@@H]1CCCN1C [II-6] | 5.75 | 0.72 | 16 | 5.78 | 7.06 | > 121 | > 119 | 11
C[C@H](Oc1cc(Oc2cnccn2)nc(-c2noc3c2CCC[C@@]32CCCc3sc(N)c(C#N)c32)n1)[C@@H]1CCCN1C [II-7] | 5.52 | 0.28 | 10 | 6.00 | 7.68 | > 118 | 90 (≈ 154 µM) | 4
C[C@H](Oc1cc(N(C)C)nc(-c2noc3c2CCC[C@@]32CCCc3sc(N)c(C#N)c32)n1)[C@@H]1CCCN1C [II-10] | 5.71 | 0.08 | 81 | 5.62 | 5.92 | > 107 | 95 (≈ 178 µM) | 61
C[C@H](Oc1cc(Nc2nccs2)nc(-c2noc3c2CCC[C@@]32CCCc3sc(N)c(C#N)c32)n1)[C@@H]1CCCN1C [II-12] | 5.53 | 0.07 | 65 | 5.76 | 6.51 | 2 (≈ 3.4 µM) | < 1 | 44
C[C@H](Oc1cc(Nc2ncco2)nc(-c2noc3c2CCC[C@@]32CCCc3sc(N)c(C#N)c32)n1)[C@@H]1CCCN1C [II-13] | 6.02 | 0.2 | 37 | 6.27 | 7.16 | > 157 | 44 (≈ 76.8 µM) | 17
C[C@H](Oc1cc(Nc2cnccn2)nc(-c2noc3c2CCC[C@@]32CCCc3sc(N)c(C#N)c32)n1)[C@@H]1CCCN1C [II-14] | 5.50 | 0.1 | 59 | 5.85 | 6.94 | 67 (≈ 115 µM) | 11 (≈ 18.8 µM) | 15
C[C@H](Oc1cc(Nc2ncccn2)nc(-c2noc3c2CCC[C@@]32CCCc3sc(N)c(C#N)c32)n1)[C@@H]1CCCN1C [II-17] | 5.57 | 0.28 | 33 | 5.78 | 7.22 | 67 (≈ 115 µM) | < 1 | 19
C[C@H](Oc1cc(O[C@H]2CN(C)C(C)(C)C2)nc(-c2noc3c2CCC[C@@]32CCCc3sc(N)c(C#N)c32)n1)[C@@H]1CCCN1C [II-19] | 5.85 | 0.12 | 91 | 5.84 | 6.03 | > 161 | > 164 | 218
C[C@H](Oc1cc(N(C)CCN(C)C)nc(-c2noc3c2CCC[C@@]32CCCc3sc(N)c(C#N)c32)n1)[C@@H]1CCCN1C [II-20] | 5.45 | 0.8 | 304 | 5.33 | 6.05 | > 144 | > 142 | 376
C[C@H](Oc1cc(OCC2(N(C)C)CC2)nc(-c2noc3c2CCC[C@@]32CCCc3sc(N)c(C#N)c32)n1)[C@@H]1CCCN1C [II-21] | 6.56 | 0.72 | 22 | 5.66 | 6.01 | > 143 | > 126 | 195
C[C@H](Oc1cc(OCC2(N(C)C)COC2)nc(-c2noc3c2CCC[C@@]32CCCc3sc(N)c(C#N)c32)n1)[C@@H]1CCCN1C [II-22] | 6.53 | 0.46 | 6 | 5.77 | 6.45 | > 168 | > 157 | 22
COc1c(OCC2(N(C)C)COC2)nc(-c2noc3c2CCC[C@@]32CCCc3sc(N)c(C#N)c32)nc1O[C@@H](C)[C@@H]1CCCN1C [II-25] | 6.24 | 0.48 | 15 | 6.41 | 6.49 | > 163 | > 152 | 85
C[C@H]1CN(C)CCCN1c1cc(O[C@@H]2CNC2(C)C)nc(-c2noc3c2CCC[C@@]32CCCc3sc(N)c(C#N)c32)n1 [II-28] | 6.35 | 0.59 | 130 | 5.01 | 5.59 | > 151 | > 146 | 2080
